Our source for the Ratio values is ChEMBL document CHEMBL2384977, “Synthesis and biological evaluation of novel styryl benzimidazole derivatives as probes for imaging of neurofibrillary tangles in Alzheimer's disease” (Bioorg Med Chem, 2013).

Common to all, as to format: ADME, organism-based
Conditions in all cases: in vivo

Data set [1] has as its system Brain. Briefly: Ratio of drug level in ICR mouse brain at 0.68 to 1.32 MBq, iv measured at 2 mins to drug level in ICR mouse brain at 0.68 to 1.32 MBq, iv measured at 60 mins.
Data set [2] relates to Brain. As to the kind of experiment: Ratio of drug level in ddY mouse brain at 7.1 to 21.5 kBq, iv measured at 2 mins to drug level in ddY mouse brain at 7.1 to 21.5 kBq, iv measured at 60 mins.
The test system of data set [3] is Brain. As to the kind of experiment: Ratio of drug level in ICR mouse brain at 2.6 to 3.3 MBq, iv measured at 2 mins to drug level in ICR mouse brain at 2.6 to 3.3 MBq, iv measured at 60 mins.

With `Nc1ccc(-c2ccc3cc(OCC[18F])ccc3n2)cc1`, the Ratio in the data set on Brain [1] was determined as 1.83.
Take `O=C1/C(=C/c2ccc(-c3cccc([125I])c3)o2)NC(=S)N1CCc1c[nH]cn1`: the Ratio in the data set on Brain [2] came out at 6.16.
Regarding `[11CH3]Nc1ccc(-c2ccc3ccccc3n2)cc1`, in the data set on Brain [3], the Ratio was found to be 5.38.
